One assay has as its system CB1. To be noted: Bisogno et al. 2001; cited from earlier work.
Another assay concerns mouse seizure model. Conditions: Leite et al. 1982; cited from earlier work.
For another assay, the target named is TRPV-1 (Homo sapiens, UniProt Q8NER1). The assay is described as follows: Capsaicin-induced intracellular calcium mobilization (Fura-2) in HEK-293T-TRPV1 cells. To be noted: capsaicin 1 µM; Fura-2 AM; Figure 2A. On the set-up: expressed in transfected cells; host or cells: HEK-293T. The format is cell-based. How it is done:
Next, the effect of (+)CBD and (-)CBD on TRPV-1 activity was investigated. TRPV-1 is an ionotropic receptor that upon activation by a specific agonist such as capsaicin mobilize intracellular calcium in TRPV-1 expressing cells. Moreover, TRPV-1-induced calcium exerts cytotoxicity in non-neuronal cells overexpressing this receptor. To explore the effect of (+)CBD on calcium mobilization HEK-293T-TRPV1 cells were cultured in 96-well plates (10^3 cells/well) and loaded with Fura 2 acetyoxymethyl ester (Fura-2 AM; 8 µM) (Molecular Probes, Carlsbad, CA) in Dulbecco's modified Eagle's medium (containing 110 mg/l pyruvate) supplemented with 10% FBS and incubated (40 min, 37°C, 5% CO2). The cells were preincubated with (+)CBD and after 15 sec treated with capsaicin (1µM). Changes in intracellular free calcium concentration (intracellular [Ca^2+]free) were measured by digital microscopy equipped with ratiometric recording of single cells. (BD Pathway 855 Bioimager). The field of cells was monitored by sequential dual excitation, 352 and 380 nm, and the analysis of the image ratios used methods described previously to calculate changes in intracellular [Ca^2+]free. The ratio images were acquired every 6 s. At the end of experiments, the cells were exposed to ionomycin (30 s, 1 µM) to obtain a maximal response.

Sequence of TRPV-1 (Q8NER1 whole entry): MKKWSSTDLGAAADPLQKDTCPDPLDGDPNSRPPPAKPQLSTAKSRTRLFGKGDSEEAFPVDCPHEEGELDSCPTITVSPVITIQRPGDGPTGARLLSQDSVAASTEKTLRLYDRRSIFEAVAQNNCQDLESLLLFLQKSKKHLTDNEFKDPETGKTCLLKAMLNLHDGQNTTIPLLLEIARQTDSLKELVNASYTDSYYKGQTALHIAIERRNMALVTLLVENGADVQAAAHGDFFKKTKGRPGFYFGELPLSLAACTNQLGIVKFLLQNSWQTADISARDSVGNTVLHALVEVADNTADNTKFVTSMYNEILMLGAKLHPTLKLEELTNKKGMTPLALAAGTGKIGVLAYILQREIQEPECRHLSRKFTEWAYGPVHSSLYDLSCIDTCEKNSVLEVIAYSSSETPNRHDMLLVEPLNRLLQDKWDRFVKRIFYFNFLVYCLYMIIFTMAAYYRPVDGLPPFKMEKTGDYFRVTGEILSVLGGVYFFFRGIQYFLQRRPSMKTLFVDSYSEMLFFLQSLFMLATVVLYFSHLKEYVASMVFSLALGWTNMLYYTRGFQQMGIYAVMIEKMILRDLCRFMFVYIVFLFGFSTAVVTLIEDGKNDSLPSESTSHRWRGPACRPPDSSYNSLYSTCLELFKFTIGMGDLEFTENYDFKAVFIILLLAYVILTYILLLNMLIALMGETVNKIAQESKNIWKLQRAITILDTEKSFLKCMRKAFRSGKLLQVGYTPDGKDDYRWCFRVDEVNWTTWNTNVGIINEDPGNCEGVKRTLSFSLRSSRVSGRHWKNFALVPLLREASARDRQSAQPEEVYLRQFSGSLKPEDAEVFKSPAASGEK

Regarding `C=C(C)[C@H]1CCC(C)=C[C@@H]1c1c(O)cc(CCCCC)cc1O` [(+)CBD, (+)Cannabidiol], the “affinity at CB1 receptors” value in the assay on CB1 was “has been shown to have affinity”. The anticonvulsant activity entry in the assay on mouse seizure model was “more active than the (-)CBD isomer”.
As to `C=C(C)[C@@H]1CCC(C)=C[C@H]1c1c(O)cc(CCCCC)cc1O` [(-)CBD, 2-[(1R,6R)-3-methyl-6-prop-1-en-2-ylcyclohex-2-en-1-yl]-5-pentylbenzene-1,3-diol], the capsaicin-induced calcium mobilization result on TRPV-1 is reported as “prevent capsaicin-induced calcium mobilization”.

(Values after patent EP3643303A1, “COMPOUNDS FOR USE IN THE TREATMENT OR PREVENTION OF FIBROTIC DISEASES; PHARMACEUTICAL, COSMETIC COMPOSITIONS AND USES THEREOF” (InnovativeHealth Group SL, priority 2018, dated 2020).)
